Molecules are shown by their SMILES.

In one data set the test system is Hepatitis C virus. The data set is described as follows: microbe, parasite or virus in culture. Conditions: genotype 1b, Huh-7, 72 h.
Data set [1] can be described thus: in vitro. The settings on record: human, liver microsomes. (In general: Microsomes from liver hold many membrane-bound enzymes, among them those of drug oxidation.)
A short description of data set [2]: in vitro. Conditions: human, Huh7/C24 cells.
Description: Cytotoxicity against human Huh7/C24 cells after 72 hrs by bDNA assay

The term EC50 denotes the concentration at which the effect is half-maximal. Low readings indicate greater potency, high ones weaker potency. Broadly, the half-life is how long it takes for the measured level to halve. A higher half-life goes with slow decline. Compound `CC(C)C[C@@H]1CC(O)=C(C2=NS(=O)(=O)c3cc(NS(C)(=O)=O)ccc3N2)C(=O)N1Cc1ccc(F)cc1` yielded an EC50 in the data set on Hepatitis C virus of 2900 nM. For the same compound, in “in vitro [1]”, the half-life at 5 µM is > 60 min.
The term CC50 denotes the concentration giving 50% cytotoxicity. A lower CC50 goes with greater toxicity to the cells. `CC(C)=CC[C@H]1CN(Cc2ccc(F)cc2)C(=O)C(C2=NS(=O)(=O)c3cc(NS(C)(=O)=O)ccc3N2)=C1O`: the EC50 in the data set with Hepatitis C virus is 670 nM. Besides, the half-life at 5 µM in the data set “in vitro [1]” turned out to be 6.9 min. In “in vitro [2]”, the CC50 at 72 h was > 33000 nM.
In turn, `CC(C)CC[C@]1(C)CN(C2CC2)C(=O)C(C2=NS(=O)(=O)c3cc(NS(C)(=O)=O)ccc3N2)=C1O` returned an EC50 in the data set on Hepatitis C virus of 97 nM. For the same compound, the half-life at 5 µM in “in vitro [1]” amounted to 5.5 min. In addition, the CC50 at 72 h in the data set “in vitro [2]” was > 33000 nM.
For `CS(=O)(=O)Nc1ccc2c(c1)S(=O)(=O)N=C(C1=C(O)CCN(Cc3ccc(F)cc3)C1=O)N2` the same measures were 3900 nM, > 60 min and > 33000 nM.
In the data set with Hepatitis C virus, `CS(=O)(=O)Nc1ccc2c(c1)S(=O)(=O)N=C(C1=C(O)C[C@H](c3ccccc3)N(Cc3ccc(F)cc3)C1=O)N2` came in with an EC50 of 660 nM. Further, the half-life at 5 µM in “in vitro [1]” is > 60 min. Besides, in the data set “in vitro [2]”, the CC50 at 72 h is > 10000 nM.
Compound `CC(C)CC[C@]1(C)CN(C2CCCCC2)C(=O)C(C2=NS(=O)(=O)c3cc(NS(C)(=O)=O)ccc3N2)=C1O` came in with a 50% effective concentration (EC50) in the data set on Hepatitis C virus of 25 nM. Moreover, the half-life at 5 µM in the data set “in vitro [1]” was > 3.6 min. Further, the CC50 at 72 h in “in vitro [2]” was > 33000 nM.
Turning to `CC(C)/C=C/C[C@@H]1CN(C2CCCC2)C(O)C(C2=NS(=O)(=O)c3cc(NS(C)(=O)=O)ccc3N2)=C1O` (stereo partly specified), it took 240 nM to reach a half-maximal effect in the data set with Hepatitis C virus (EC50). The half-life at 5 µM in “in vitro [1]” is 35 min. Besides, the CC50 at 72 h in “in vitro [2]” was > 33000 nM.
For the compound `C#CC[C@]1(C)CN(C2CCCC2)C(=O)C(C2=NS(=O)(=O)c3cc(NS(C)(=O)=O)ccc3N2)=C1O`, the midpoint of the response in the data set on Hepatitis C virus, the EC50, lay at 2900 nM. The same compound registered a half-life at 5 µM in “in vitro [1]” of 43 min. In addition, the half-maximal cytotoxic concentration (CC50) at 72 h in “in vitro [2]” is > 33000 nM.
For `CS(=O)(=O)Nc1ccc2c(c1)S(=O)(=O)N=C(C1=C(O)CC3(CCCC3)N(Cc3ccc(F)cc3)C1=O)N2`, in that order: 840 nM, > 60 min and > 33000 nM.
`CC[C@H]1CC(O)=C(C2=Nc3ccc(NS(C)(=O)=O)cc3S(=O)(=O)N2)C(=O)N1Cc1ccc(F)cc1` yielded an EC50 in the data set with Hepatitis C virus of 83 nM. Further, in “in vitro [1]”, the half-life at 5 µM was > 60 min. The 50% cytotoxic concentration (CC50) at 72 h in the data set “in vitro [2]” is > 1000 nM.
Compound `CCC(CC)[C@@H]1CC(O)=C(C2=NS(=O)(=O)c3cc(NS(C)(=O)=O)ccc3N2)C(=O)N1Cc1ccc(F)cc1` displayed an EC50 in the data set with Hepatitis C virus of 310 nM. In addition, the half-life at 5 µM in “in vitro [1]” is 59 min. For the same compound, in “in vitro [2]”, the half-maximal cytotoxic concentration (CC50) at 72 h was > 1000 nM.
As to `CS(=O)(=O)Nc1ccc2c(c1)S(=O)(=O)N=C(C1=C(O)C3(CCCC3)CN(Cc3ccc(F)cc3)C1=O)N2`, it took 2100 nM to reach a half-maximal effect in the data set with Hepatitis C virus (EC50). In “in vitro [1]”, this compound had a half-life at 5 µM of 28 min. The CC50 at 72 h in “in vitro [2]” was > 33000 nM.
Take `C[C@@]1(Cc2ccc(F)cc2)CN(C2CCCC2)C(=O)C(C2=NS(=O)(=O)c3cc(NS(C)(=O)=O)ccc3N2)=C1O`: in the data set with Hepatitis C virus, the response was half-maximal at 14000 nM (EC50). Moreover, the CC50 at 72 h in “in vitro [2]” is > 33000 nM.
Regarding `CC(C)CC[C@]1(C)CN(C2CCCC2)C(=O)C(C2=NS(=O)(=O)c3cc(NS(C)(=O)=O)ccc3N2)=C1O`, in “in vitro [1]”, the half-life at 5 µM is > 2.6 min. Besides, the 50% cytotoxic concentration (CC50) at 72 h in the data set “in vitro [2]” is > 33000 nM.
`C[C@@]1(Cc2ccc(F)cc2)CN(C2CC2)C(=O)C(C2=NS(=O)(=O)c3cc(NS(C)(=O)=O)ccc3N2)=C1O` returned a concentration giving a half-maximal response (EC50) in the data set on Hepatitis C virus of 2100 nM. Also, the CC50 at 72 h in the data set “in vitro [2]” is > 33000 nM.
Take `CC(C)CC[C@]1(C)CN(c2ccccc2)C(=O)C(C2=NS(=O)(=O)c3cc(NS(C)(=O)=O)ccc3N2)=C1O`: the half-life at 5 µM in “in vitro [1]” was > 2.3 min.
In the data set on Hepatitis C virus, `CC(C)CC[C@@H]1CC(O)=C(C2=NS(=O)(=O)c3cc(NS(C)(=O)=O)ccc3N2)C(=O)N1Cc1ccc(F)cc1` gave an EC50 of 5500 nM. In the data set “in vitro [1]”, the half-life at 5 µM was 7.6 min.
For `CC[C@@H]1CC(O)=C(C2=NS(=O)(=O)c3cc(NS(C)(=O)=O)ccc3N2)C(=O)N1Cc1ccc(F)cc1`, in that order: 970 nM and > 60 min.

Values taken from ChEMBL document CHEMBL1156075, “5,5'- and 6,6'-dialkyl-5,6-dihydro-1H-pyridin-2-ones as potent inhibitors of HCV NS5B polymerase” (Bioorg Med Chem Lett, 2009).
